Patent publication US9346822B2, “Thienopyrimidine compounds and use thereof” (TAKEDA PHARMACEUTICAL COMPANY LIMITED, priority 2003, dated 2016)

target: human GnRH receptor (Homo sapiens (Human), UniProt P30968); assay: 125I-leuprorelin binding inhibition, CHO cell membrane fraction containing human GnRH receptor; settings: human GnRH receptor expressed in CHO cell membrane, 25° C., 60 minutes, from Hill plot
Procedure: To a tube containing 10 μl of a 3×10^−4 M aqueous solution of leuprorelin and 10 μl of 0.01 mg/ml lactoperoxidase was added 10 μl (37 MBq) of a solution of Na^125I. After stirring, 10 μl of 0.001% H2O2 was added, and a reaction was carried out at room temperature for 20 minutes. By adding 700 μl of a 0.05% TFA solution, the reaction was stopped, followed by purification by reversed-phase HPLC. The HPLC conditions used are shown below. ^125I-leuprorelin was eluted at a retention time of 26 to 27 minutes.
Human GnRH receptor-expressing CHO cells (10^9 cells) were suspended in phosphate-buffered saline supplemented with 5 mM EDTA (PBS-EDTA) and centrifuged at 100×g for 5 minutes. […]
The monkey and human membrane fractions prepared in the above (2) and (3) were diluted with the assay buffer to yield a 200 µg/ml dilution, each of which was then dispensed at 188 μl per tube. […] To determine maximum binding quantity, a reaction mixture containing 2 μl of 60% DMSO and 10 μl of 38 nM ^125I-leuprorelin was prepared. […]
Where the membrane fraction of the CHO with monkey and human GnRH receptors expressed was used, the reaction was carried out at 25° C. for 60 minutes. […] After this filtration, the radioactivity of ^125I-leuprorelin remaining on the filter paper was measured with a γ-counter. […]

Chain of human GnRH receptor (P30968 whole entry): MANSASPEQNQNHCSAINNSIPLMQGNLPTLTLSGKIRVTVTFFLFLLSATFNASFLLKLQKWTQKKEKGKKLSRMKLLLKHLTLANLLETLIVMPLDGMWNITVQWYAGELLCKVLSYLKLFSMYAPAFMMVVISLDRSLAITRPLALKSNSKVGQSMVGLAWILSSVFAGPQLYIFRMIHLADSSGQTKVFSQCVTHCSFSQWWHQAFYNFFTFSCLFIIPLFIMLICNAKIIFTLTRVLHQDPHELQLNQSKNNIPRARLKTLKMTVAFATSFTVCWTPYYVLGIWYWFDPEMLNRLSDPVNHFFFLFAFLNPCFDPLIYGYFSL

Compound	IC50
COCCN(C)Cc1c(-c2ccc(NC(=O)NOC)cc2)sc2c1c(=O)n(-c1ccccn1)c(=O)n2Cc1c(F)cccc1F [Ex. Compd. No. 40, N-(4-(1-(2,6-difluorobenzyl)-5-(((2-methoxyethyl)(methyl)amino)methyl)-2,4-dioxo-3-(2-pyridinyl)-1,2,3,4-tetrahydrothieno[2,3-d]pyrimidin-6-yl)phenyl)-N′-methoxyurea]	0.0002 µM
CCOCCN(C)Cc1c(-c2ccc(NC(=O)NOC)cc2)sc2c1c(=O)n(-c1ccccn1)c(=O)n2Cc1c(F)cccc1F [Ex. Compd. No. 41, N-(4-(1-(2,6-difluorobenzyl)-5-(((2-ethoxyethyl)(methyl)amino)methyl)-2,4-dioxo-3-(2-pyridinyl)-1,2,3,4-tetrahydrothieno[2,3-d]pyrimidin-6-yl)phenyl)-N′-methoxyurea]	0.0001 µM

test system: not given; assay: not given; settings: not given

Compound	melting point
CONC(=O)Nc1ccc(-c2sc3c(c2CN[C@H](C)c2ccccc2)c(=O)n(-c2ccccc2)c(=O)n3Cc2c(F)cccc2F)cc1 (hydrate or solvate) [Reference Example 28, N-(4-(5-(((1R)-1-phenylethylamino)methyl)-1-(2,6-difluorobenzyl)-1,2,3,4-tetrahydro-2,4-dioxo-3-phenylthieno[2,3-d]pyrimidin-6-yl)phenyl)-N′-methoxyurea]	180 to 182 °C
CONC(=O)Nc1ccc(-c2sc3c(c2CN[C@@H](C)c2ccccc2)c(=O)n(-c2ccccc2)c(=O)n3Cc2c(F)cccc2F)cc1 [Reference Example 29, N-(4-(5-(((1S)-1-phenylethylamino)methyl)-1-(2,6-difluorobenzyl)-1,2,3,4-tetrahydro-2,4-dioxo-3-phenylthieno[2,3-d]pyrimidin-6-yl)phenyl)-N′-methoxyurea]	182 to 185 °C
COCC(c1ccccc1)N(C)Cc1c(-c2ccc(NC(=O)NOC)cc2)sc2c1c(=O)n(-c1ccccc1)c(=O)n2Cc1c(F)cccc1F (centres unmarked) [Reference Example 32, N-(4-(1-(2,6-difluorobenzyl)-5-((2-methoxy-1-phenylethyl(methyl)amino)methyl)-1,2,3,4-tetrahydro-2,4-dioxo-3-phenylthieno[2,3-d]pyrimidin-6-yl)phenyl)-N′-methoxyurea]	169 to 172 °C
COCC(C)N(C)Cc1c(-c2ccc(NC(=O)NOC)cc2)sc2c1c(=O)n(-c1ccccc1)c(=O)n2Cc1c(F)cccc1F (centres unmarked) [Reference Example 34, N-(4-(1-(2,6-difluorobenzyl)-5-(((2-methoxy-1-methylethyl)methylamino)methyl)-1,2,3,4-tetrahydro-2,4-dioxo-3-phenylthieno[2,3-d]pyrimidin-6-yl)phenyl)-N′-methoxyurea]	154 to 155 °C
CONC(=O)Nc1ccc(-c2sc3c(c2CN(C)[C@H](C)c2ccccc2)c(=O)n(-c2ccccn2)c(=O)n3Cc2c(F)cccc2F)cc1 [Reference Example 38, N-(4-(5-((methyl((1R)-1-phenylethyl)amino)methyl)-1-(2,6-difluorobenzyl)-1,2,3,4-tetrahydro-2,4-dioxo-3-pyridin-2-ylthieno[2,3-d]pyrimidin-6-yl)phenyl)-N′-methoxyurea]	168 to 170 °C
CONC(=O)Nc1ccc(-c2sc3c(c2CN(C)[C@H](C)c2ccccc2)c(=O)n(-c2ccc(F)cn2)c(=O)n3Cc2c(F)cccc2F)cc1 [Reference Example 39, N-(4-(5-((methyl((1R)-1-phenylethyl)amino)methyl)-1-(2,6-difluorobenzyl)-1,2,3,4-tetrahydro-2,4-dioxo-3-(5-fluoropyridin-2-yl)thieno[2,3-d]pyrimidin-6-yl)phenyl)-N′-methoxyurea]	128 to 130 °C
